Results on nine molecules are retold here after publication PMC3360617, “Pan-Pathway Based Interaction Profiling of FDA-Approved Nucleoside and Nucleobase Analogs with Enzymes of the Human Nucleotide Metabolism” (PLoS ONE, 2012).

The target of assay [1] is T1, Uridine phosphorylase 1 (Homo sapiens, UniProt Q16831).
T1 construct: gene UPP1
The assay is described as follows: HPLC enzyme kinetics with uridine (Lineweaver-Burk); also thermal shift ([…]°C at […]). In kind it is biochemical.

A further assay addresses T2, deoxycytidine kinase (Homo sapiens, UniProt P27707).
T2 construct: gene DCK
The assay is described as follows: thermal shift assay (DSLS), concentration-dependent. In kind it is binding. As to conditions: read-out: 500 μM NA (+1 mM ATP).

The target in assay [2] is T1, Uridine phosphorylase 1. The assay is described as follows: thermal shift assay (DSLS), concentration-dependent; enhanced by […] ribose-1-phosphate. The format is binding. Particulars: read-out: ΔTagg (NA+R1P).
The target in assay [3] is T3, Guanine deaminase (Homo sapiens, UniProt Q9Y2T3).
T3 construct: gene GDA
T3 sequence (Q9Y2T3 1-454): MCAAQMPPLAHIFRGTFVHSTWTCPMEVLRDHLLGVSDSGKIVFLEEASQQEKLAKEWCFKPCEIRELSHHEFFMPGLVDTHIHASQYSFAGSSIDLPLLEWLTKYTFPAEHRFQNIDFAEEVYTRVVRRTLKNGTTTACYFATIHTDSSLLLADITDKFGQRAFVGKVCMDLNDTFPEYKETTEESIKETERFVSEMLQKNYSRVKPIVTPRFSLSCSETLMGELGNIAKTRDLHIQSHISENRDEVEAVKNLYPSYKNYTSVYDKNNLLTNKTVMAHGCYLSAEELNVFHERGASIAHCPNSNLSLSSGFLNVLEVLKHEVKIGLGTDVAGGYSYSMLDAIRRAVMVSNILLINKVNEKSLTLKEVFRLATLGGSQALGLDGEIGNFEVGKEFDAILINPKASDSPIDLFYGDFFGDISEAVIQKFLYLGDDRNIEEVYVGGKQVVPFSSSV
Kind of assay: thermal shift assay (DSLS), concentration-dependent. The format is binding.

The target in assay [4] is T1, Uridine phosphorylase 1. The description is as above. The format is binding. Particulars: read-out: delta_Tm.
The target in assay [5] is T3, Guanine deaminase. Kind of assay: co-crystal structure at […] Å; thermal shift (DSLS), concentration-dependent. In kind it is binding. Particulars: read-out: delta_Tm.

Each structure is given as a SMILES string.

T1 sequence (Q16831 whole entry): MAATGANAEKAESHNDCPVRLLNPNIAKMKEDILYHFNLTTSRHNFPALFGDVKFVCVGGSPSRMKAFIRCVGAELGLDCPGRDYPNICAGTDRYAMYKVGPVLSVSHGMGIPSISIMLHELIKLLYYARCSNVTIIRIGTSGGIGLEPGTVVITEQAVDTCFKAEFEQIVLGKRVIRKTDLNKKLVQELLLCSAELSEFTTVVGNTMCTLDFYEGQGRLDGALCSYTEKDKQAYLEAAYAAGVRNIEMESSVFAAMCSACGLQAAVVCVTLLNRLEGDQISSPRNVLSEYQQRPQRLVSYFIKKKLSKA
T2 sequence (P27707 whole entry): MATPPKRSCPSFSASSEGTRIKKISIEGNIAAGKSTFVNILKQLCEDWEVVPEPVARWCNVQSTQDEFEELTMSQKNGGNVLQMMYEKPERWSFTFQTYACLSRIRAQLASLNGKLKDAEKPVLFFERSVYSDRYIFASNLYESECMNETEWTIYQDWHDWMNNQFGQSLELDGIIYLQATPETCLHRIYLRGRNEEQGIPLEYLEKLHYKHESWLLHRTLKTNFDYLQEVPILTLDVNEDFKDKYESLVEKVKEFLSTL

A word on the Ki: it is a measure of affinity in units of concentration, obtained from inhibition or displacement. Take `Nc1ncnc2c1ncn2[C@@H]1O[C@H](CO)[C@@H](O)[C@@H]1O` [vidarabine]: the inhibition constant Ki on Uridine phosphorylase 1 [1] is 390 µM. On to `Nc1ncn([C@H]2C[C@H](O)[C@@H](CO)O2)c(=O)n1` [Decitabine], for which the ΔTm at 500 µM at deoxycytidine kinase was 7.29 °C. Regarding `O=c1[nH]c(=O)n([C@H]2C[C@H](O)[C@@H](CO)O2)cc1C(F)(F)F` [trifluridine], the ΔTm at 500 µM at Uridine phosphorylase 1 [2] was found to be 3.78 °C.

Take `Nc1nc2c(ncn2COCCO)c(=O)[nH]1` [aciclovir]: the “thermal shift assay (DSLS), concentration-dependent” value at Guanine deaminase [3] was “Interactions were detected between GDA and valaciclovir, aciclovir, penciclovir, ganciclovir, thioguanine and mercaptopurine”. The same measure, in the same setting: to `Nc1nc2nc[nH]c2c(=S)[nH]1` [thioguanine] belongs “followed in decreasing order by thioguanine, acyclovir, penciclovir, ganciclovir and mercaptopurine”. Still for that read-out and setting: to `Nc1nc2c(ncn2CCC(CO)CO)c(=O)[nH]1` [penciclovir] belongs “Thioguanine, ganciclovir, aciclovir, penciclovir, valaciclovir, flucytosine and idoxuridine showed concentration-dependent stabilization of GDA”. As for `Nc1ccn([C@@H]2O[C@H](CO)[C@@H](O)C2(F)F)c(=O)n1` [Gemcitabine], on deoxycytidine kinase, the ΔTm at 500 µM came out at 5.22 °C.

With `O=c1[nH]c(=O)n([C@H]2C[C@H](O)[C@@H](CO)O2)cc1I` [idoxuridine], the ΔTm at 500 µM on Uridine phosphorylase 1 [4] came to 1.72 °C. Turning to `CC(C)[C@H](N)C(=O)OCCOCn1cnc2c(=O)[nH]c(N)nc21` [valaciclovir], the ΔTm at 1000 µM on Guanine deaminase [5] was about 7 °C.
